The results in this text go back to patent US11773081B2, “Pharmaceutical composition for preventing or treating wound, comprising indirubin derivative as active ingredient” (CK Regeon Inc., priority 2018, dated 2023).

Test [1] relates to mouse acute wound. The test can be described thus: Wound healing and collagen synthesis in mouse acute wound (Test Example 2). The format is in vivo. The protocol:
The wound healing-promoting effect of the indirubin derivatives prepared in Examples 1 and 2, the indirubin derivative of Comparative Example 1 (10) and EGF, known as an existing wound healing agent, as a positive control group was investigated through animal experiments.
The hair on the back of 7-week-old C3H mouse that entered the resting period was removed and a 1.5×1.5 cm^2 wound was made on the hair-removed region. 20 μL of a vehicle (10% DMSO, 45% ethanol, 18% propylene glycol, 27% water) and the indirubin derivative of Comparative Example 1 (10) were applied to a control group and a comparison group, respectively, once daily for 12 days. For the positive control group, 100 μM EGF was applied once daily for 12 days. For a first test group, 20 μL of the indirubin derivative of Example 2 (A3051) was applied once daily for 12 days. For a second test group, 20 μL of the indirubin derivative of Example 1 (A3334) was applied once daily for 12 days.
The tissue of each experimental mouse was fixed by immersing in 4% paraformaldehyde, embedded in paraffin and then sliced into 4 μm thickness. The sliced tissue was deparaffinized, rehydrated and then stained with Masson's trichrome and Picrosirius red for evaluation of the degree of collagen synthesis. For Masson's trichrome staining, a slide was placed in Weigert's iron hematoxylin solution for 10 minutes and in Biebrich scarlet-acid fuchsin and aniline blue for 5 minutes each. For Picrosirius red staining, a slide was placed in Weigert's solution for 8 minutes and in Picrosirius red for 1 hour.

Another test relates to diabetic wound. Description: Effect of treating diabetic wound (Test Example 9). In kind it is in vivo. To be noted: diabetes-induced mouse; for healing of the wound site: 0.8×0.8 cm^2 wound, 20 μL once daily for 14 days, VPA 500 mM; for re-epithelialization (H&E): 14 days. The method, then:
3-week-old male C57BL/6N mice (Koatech, South Korea) were used. After accustoming the mice for a week to normal feed, high-fat diet (Product Data—D12492; 60% kcal, hereinafter referred to as HFD) was given for 4 weeks. Then, a diabetes-induced animal model was prepared by intraperitoneally injecting 40 mg/kg streptozocin (Sigma) once daily for a week. The mice were kept in cages maintained at constant temperature (22±2° C.) and relative humidity (40-60%) with light/dark cycles of 12/12 hours.
6 mice of the normal control group and 6 mice per test group of the diabetes-induced animal model of Test Example 7 were prepared. The hair on the back was removed and a 0.8×0.8 cm^2 wound was made on the hair-removed region.
For the normal control group, only 20 μL of an emulsion solution (Kollipore®EL:Tween 80:PEG 400 at a mixing weight ratio of 80:6:14) was applied to the wound site once daily for 14 days. For the negative control group, only 20 μL of the emulsion solution (Kollipore®EL:Tween 80:PEG 400 at a mixing weight ratio of 80:6:14) was applied to the wound site once daily for 14 days. For the positive control group (VPA), 20 μL of a composition prepared by mixing 500 mM VPA in an emulsion solution was applied to the wound site once daily for 14 days.
For the first test group, 20 μL of A3334 (Example 1) was applied to the wound site once daily for 14 days. For the second test group, 20 μL of A3051 (Example 2) was applied to the wound site once daily for 14 days. Then, the wound site of each group was photographed and the wound area was measured (FIG. 14). On day 14, after euthanizing the mouse with carbon dioxide, the wound site tissue was harvested and the histological structure was observed.
Specifically, the wound site tissue obtained from the normal control group, the negative control group, the positive control group or the first or second test group was fixed by immersing in 4% paraformaldehyde, embedded in paraffin and then sliced into 4 μm thickness. The sliced tissue was deparaffinized, rehydrated and then stained with hematoxylin (purple) and eosin (pink) for observation of histological structure.
Specifically, the wound site tissue obtained from the normal control group, the negative control group, the positive control group or the first or second test group was fixed by immersing in 4% paraformaldehyde, embedded in paraffin and then sliced into 4 μm thickness. The sliced tissue was deparaffinized, rehydrated and then stained with Van Gieson's stain and Masson's trichrome for observation of histological structure. For the Van Gieson's staining, the sliced tissue was immersed in Weigert's solution for 10 minutes and in picrofuchsin solution for 2 minutes. For the Masson's trichrome staining, the sliced tissue was immersed in Weigert's iron hematoxylin solution for 10 minutes and in Biebrich scarlet-acid fuchsin and Aniline blue for 5 minutes each.
Specifically, the wound site tissue obtained from the normal control group, the negative control group, the positive control group or the first and second test groups was fixed by immersing in 4% paraformaldehyde and angiogenesis was observed.

Test [2] concerns mouse acute wound. The test can be described thus: Wound healing effect of mixtures in mouse acute wound (Test Example 4). The format is in vivo. To be noted: C3H mouse; Example 2 0.5 mM, Example 5 2.5 mM, 5 mM; 20 μL once daily for 12 days.
Test [3] deals with mouse acute wound. Description: Wound healing effect of extract and indirubin derivative mixtures in mouse acute wound (Test Example 6). To be noted: mouse acute wound tissue, fluorescence staining. The format is in vivo. The method, then: Wound healing-promoting effect was investigated after treating an animal model with the indirubin derivative of Example 1 (0.5 mM), the indirubin derivative of Example 2 (0.5 mM) or the mixtures of Examples 12 and 13 (0.5 mM indirubin derivative mixed with 1 μg/mL Euodia sutchuenensis Dode extract).
The hair on the back of 7-week-old C3H mouse that entered the resting period was removed and a 1.5×1.5 cm^2 wound was made on the hair-removed region. A sample was applied to a positive control group, once daily for 12 days. After measuring wound size of the experimental animal on days 0 and 12, the wound tissue was fixed by immersing in 4% paraformaldehyde, embedded in paraffin and then sliced into 4 μm thickness. The sliced tissue was deparaffinized, rehydrated and then the degree of re-epithelialization was compared. Masson's trichrome staining and Picrosirius red staining were conducted for evaluation of the degree of collagen synthesis. For Masson's trichrome staining, a slide was immersed in Weigert's iron hematoxylin solution for 10 minutes and in Biebrich scarlet-acid fuchsin and aniline blue for 5 minutes each. […] The sliced skin tissue was fluorescence-stained using β-catenin, PCNA, keratin 14 and collagen I antibodies and was observed using a fluorescence microscope (FIG. 9a). […]

The test system of test [4] is HaCaT cells. Description: Cell migration of keratinocytes, Euodia sutchuenensis Dode extract and indirubin derivative mixtures (Test Example 5). In kind it is cell-based, human. To be noted: 18 hours. The protocol:
Cell migration was compared after treating cells with the indirubin derivative of Example 1 (0.1 μM, 1 μM), the indirubin derivative of Example 2 (0.1 μM, 1 μM) or the mixtures of Examples 12 and 13 (0.1 μM and 1 μM indirubin derivative mixed with 1 μg/mL Euodia sutchuenensis Dode extract, respectively).
A non-treated control group (con), a group treated with the Euodia sutchuenensis Dode extract of Example 8 (1 μg/mL) alone (Euodia sutchuenensis Dode 1 μg/mL) and a positive control group treated with 100 μM VPA (valproic acid) were prepared.
Experiment was conducted as follows. First, HaCaT cells were cultured in a 12-well plate for 24 hours. The HaCaT cells are human keratinocytes which are known to play an important role in wound healing. DMEM containing 10% FBS was used. After the culturing for 24 hours was completed, the medium was replaced with DMEM containing 5% FBS and a scratch was made at the center of the cells using a 1000p (blue) tip. Then, after treating the scratched area with a sample, cell migration and motility was observed 18 hours later.
As the sample, the indirubin derivative of Example 1 (0.1 μM, 1 μM), the indirubin derivative of Example 2 (0.1 μM, 1 μM) or the mixtures of Examples 12 and 13 (0.1 μM and 1 μM indirubin derivative mixed with 1 μg/mL Euodia sutchuenensis Dode extract, respectively) was used. […]

The test system of test [5] is HaCaT cells. The test can be described thus: Cell motility of keratinocytes, indirubin derivative and low-molecular-weight compound mixtures (Test Example 3). In kind it is cell-based, human. To be noted: HaCaT scratch; 18 hours later; methyl vanillate 5 μM, hesperidin 1 μM, quercitrin 1 μM. The protocol:
For analysis of wound healing effect, cell motility was compared for treatment with the indirubin derivative prepared in Example 2, the methyl vanillate of Example 5, the hesperidin of Example 6, the quercitrin of Example 7 and the mixtures prepared in Examples 9-11.
HaCaT cells, which are human keratinocytes playing an important role in wound healing, were cultured in a 12-well plate for 24 hours using DMEM containing 10% FBS. Then, after replacing the medium with DMEM containing 5% FBS, a scratch was made at the center of the cells using a 1000p (blue) tip. Then, after treating the scratched area with each of the indirubin derivative prepared in Example 2, the methyl vanillate of Example 5, the hesperidin of Example 6, the quercitrin of Example 7 and the mixtures prepared in Examples 9-11 at a concentration of 1 μM or 5 μM, cell motility was observed 18 hours later.
Specifically, the concentration of the indirubin derivative prepared in Example 2, the hesperidin of Example 6 and the quercitrin of Example 7 was 1 μM, the concentration of the methyl vanillate of Example 5 was 5 μM, and the mixtures prepared in Examples 9-11 were prepared by mixing 1 μM indirubin derivative with 5 μM methyl vanillate, 1 μM hesperidin or 1 μM quercitrin.
The control group (control) means non-treated keratinocytes. […]

[6] abbreviates: C3H mouse acute wound, once daily for 12 days, vs EGF.

Take `CO/N=C1/C(=C2/C(=O)Nc3cc(Cl)c(Cl)cc32)Nc2ccccc21` [Example 2, 5,6-dichloroindirubin-3′-methoxime]: the “quantity of collagen (Masson's trichrome, Picrosirius red, van Gieson's stain)” value in the test on mouse acute wound [1] (C3H mouse acute wound tissue, vs control group, Comparative Example 1, positive control group) was “remarkably increases the quantity of collagen”. Besides, in the test with mouse acute wound [1] (setting [6]), the “re-epithelialization of acute wound” value was “re-epithelialized comparably to or faster than the positive control group EGF” and the “scar-reducing effect, repair of the epidermal layer of skin” value was “very effective in reducing scarring”. Further, the “wound repair effect as compared to the positive control group EGF” value in the test on mouse acute wound [1] (C3H mouse, 1.5×1.5 cm^2 wound, 20 μL once daily for 12 days, EGF 100 μM) is 2-6 times. In the test on diabetic wound, the “angiogenesis around the wound site” value is listed as “increased angiogenesis”, the “healing of the wound site” value was “healing of the wound site was promoted similarly to the normal control group” and the “re-epithelialization (H&E)” value is recorded as “re-epithelialization occurred quickly”. For the same compound, in the test on diabetic wound (vs normal, negative and positive control group (VPA)), the “collagen synthesis (Van Gieson's stain, Masson's trichrome)” value is “increased collagen synthesis”. In the test on mouse acute wound [2], the “acute wound healing as compared to the control group or the positive control group” value is listed as “healed quickly”. The “expression of β-catenin, PCNA, keratin 14 and collagen I” value in the test with mouse acute wound [3] is given as “slightly lower as compared to the positive control group”. In the test with HaCaT cells [4] (first value of 'respectively' (0.1 μM indirubin derivative; mixture with 1 μg/mL extract)), the “recovery of cell migration rate (%) as compared to the control group” value is recorded as 50%. Also, the “recovery of cell migration rate (%) as compared to the control group” value with HaCaT cells [4] (second value of 'respectively' (1 μM indirubin derivative; mixture with 1 μg/mL extract)) amounted to 114%.

Regarding `COC(=O)c1ccc(O)c(OC)c1` [Example 5, Methyl vanillate, reference compound], the “cell motility compared with the control group” value in the test with HaCaT cells [5] was “no difference in cell motility”. The “acute wound healing as compared to the control group or the positive control group” value in the test on mouse acute wound [2] is on record as “healed quickly”.

For the compound `COc1ccc([C@@H]2CC(=O)c3c(O)cc(O[C@@H]4O[C@H](CO[C@@H]5O[C@@H](C)[C@H](O)[C@@H](O)[C@H]5O)[C@@H](O)[C@H](O)[C@H]4O)cc3O2)cc1O` [Example 6, Hesperidin], in the test with HaCaT cells [5], the “cell motility compared with the control group” value is “no difference in cell motility”.

For the compound `CCCC(CCC)C(=O)O` [VPA, valproic acid, reference compound], in the test with diabetic wound, the “healing of the wound site” value was “wound healing was delayed similarly to the negative control group” and the “re-epithelialization (H&E)” value is listed as “re-epithelialization did not occur even after 14 days”.
